The results in this text go back to PMC8452690, “Structural basis for small molecule targeting of Doublecortin Like Kinase 1 with DCLK1-IN-1” (Communications Biology, 2021).

Molecules are shown by their SMILES.

In test [1] the target is T1, DCLK1-FL1Δ D511N tubulin polymerisation (MAP function) (Homo sapiens, UniProt O15075, D511N).
T1 construct: DCLK1-FL1Δ (residues 50-686); 8XHis tag with TEV protease cleavage site (N); made in house; host or cells: Escherichia coli C41(DE3)
T1 sequence (O15075 50-686 isoform O15075-2 D511N): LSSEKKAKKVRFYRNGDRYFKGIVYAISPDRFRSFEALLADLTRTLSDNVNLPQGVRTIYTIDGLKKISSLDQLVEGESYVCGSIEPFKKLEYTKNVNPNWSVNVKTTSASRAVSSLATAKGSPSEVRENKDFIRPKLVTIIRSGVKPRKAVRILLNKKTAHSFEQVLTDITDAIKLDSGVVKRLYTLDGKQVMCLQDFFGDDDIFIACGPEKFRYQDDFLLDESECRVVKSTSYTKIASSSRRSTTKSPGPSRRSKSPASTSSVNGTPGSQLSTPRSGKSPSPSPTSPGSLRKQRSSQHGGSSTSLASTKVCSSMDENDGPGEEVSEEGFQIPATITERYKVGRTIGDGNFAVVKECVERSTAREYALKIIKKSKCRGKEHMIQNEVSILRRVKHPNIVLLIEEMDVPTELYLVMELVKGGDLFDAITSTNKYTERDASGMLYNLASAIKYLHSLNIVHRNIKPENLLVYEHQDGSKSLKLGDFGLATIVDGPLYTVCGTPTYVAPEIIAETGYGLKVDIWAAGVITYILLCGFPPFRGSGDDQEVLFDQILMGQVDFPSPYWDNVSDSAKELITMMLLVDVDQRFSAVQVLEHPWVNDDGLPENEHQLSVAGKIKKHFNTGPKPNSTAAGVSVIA
The test can be described thus: Fluorescence-based Tubulin Polymerisation Assay with DCLK1-FL1Δ D511N. In kind it is biochemical. Conditions: 20 μM or 40 μM, fluorescence (Fig. 5e). The protocol:
(§1) Tubulin polymerisation assay were performed using the Microtubule Polymerisation/Depolymerisation Fluorescence Kit (Cytoskeleton #BK011P) in accordance with the manufacturer’s instructions. DCLK1 (4 μΜ) was added to 50 μL tubulin reaction mix containing Buffer 1 (80 mM PIPES at pH 6.9, 2.0 mM MgCl2, 0.5 mM EGTA, 10 μM fluorescent reporter), guanosine triphosphate stock solution at 100 mM, and tubulin (10 mg/ml) stock solution, as described by the manufacturer. Paclitaxel, a control of tubulin polymerisation, was tested at 3 μM, and Νocodazole, a tubulin polymerisation inhibitor, was tested at 80 μΜ. DCLK1-IN-1 was tested at 20 and 40 μΜ with buffer alone as controls. Polymerisation leads to fluorescence enhancement due to incorporation of a fluorescence reporter into polymerising microtubules and was measured by excitation at 355 nm and emission at 460 nm. Readings were taken every 20 s on EnVision Multimode Plate Reader. Each condition was tested in duplicate with two independent batches of protein.

The target in test [2] is T2, DCLK1-KD (residues 372-649) (Homo sapiens, UniProt O15075).
T2 construct: the DCLK1 kinase domain (DCLK1-KD; residues 372-649) by carrying out thermal stability assays; 8XHis tag with TEV protease cleavage site (N); made in house; host or cells: Escherichia coli C41(DE3)
T2 sequence (O15075 372-649 isoform O15075-2): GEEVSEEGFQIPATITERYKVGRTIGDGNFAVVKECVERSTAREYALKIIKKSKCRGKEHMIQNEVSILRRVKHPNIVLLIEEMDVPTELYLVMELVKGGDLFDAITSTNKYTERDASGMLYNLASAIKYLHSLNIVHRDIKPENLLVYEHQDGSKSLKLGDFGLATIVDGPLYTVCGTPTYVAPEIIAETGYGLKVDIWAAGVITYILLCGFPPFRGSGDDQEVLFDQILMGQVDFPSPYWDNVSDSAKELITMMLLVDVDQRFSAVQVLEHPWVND
The experiment in a line: Thermal shift stability assay, DCLK1-KD. Format: binding. Conditions: compound titration 2.5 to 40 μM. The protocol:
DCLK1 proteins were diluted in 150 mM NaCl, 20 mM Tris pH 8.0, 1 mM DTT to […] final concentration and assayed with the appropriate concentration of inhibitor in a total reaction volume of 25 μL. SYPRO Orange (Molecular Probes) was used as a fluorescence probe and detected at 530 nm. The data shown are representative of two independent experiments.

For test [3], the target named is T1, DCLK1-FL1Δ D511N tubulin polymerisation (MAP function). The experiment in a line: Tubulin polymerisation and pelleting assay with DCLK1-FL1Δ D511N. Format: biochemical. The protocol: (§2) Tubulin polymerisation assays were performed in buffer containing 80 mM PIPES at pH 6.9, 2.0 mM MgCl2, 0.5 mM EGTA, 2.5 mM β,γ-Methyleneguanosine 5’-triphosphate, and 10 μM tubulin and 5 μM DCLK1 for 1 h at 37 °C. For tubulin polymerisation in the presence of inhibitors, various concentrations of the inhibitors were first incubated with DCLK1 and allowed to stand on ice for 5 min before adding this mix to the tubulin polymerisation reaction. Following the tubulin polymerisation, the reaction mix was pelleted at 20,000 g for 20 min and the supernatant and the pellet fractions were run on a 12% SDS gel. The data shown are representative of two independent experiments.

In test [4] the test system is tubulin. The test can be described thus: Tubulin polymerisation in the absence of DCLK1 (pelleting and fluorescence assays). In kind it is biochemical. Conditions: absence of DCLK1-FL1Δ D511N. The method, then:
as §2
as §1, with “Paclitaxel, a control of tubulin polymerisation, was tested at 3 μM, and Νocodazole, a tubulin polymerisation inhibitor, was tested at 80 μΜ. DCLK1-IN-1 was tested at 20 and 40 μΜ with buffer alone as controls.” left out, “Each condition was tested in duplicate with two independent batches of protein.” left out

On to `COc1cc(N2CCN(C)CC2)ccc1Nc1ncc2c(n1)N(C)c1ccccc1C(=O)N2CC(F)(F)F` [DCLK1-IN-1], for which the “effect on DCLK1-FL1Δ D511N ability to polymerise tubulin” value was “did not impact” in test [1] and “did not impact” in test [3] (20 μM or 40 μM, pelleting / SDS-PAGE (Fig. 5d)). Further, the “binding by shift in melting temperature (ΔTm)” value in test [2] is “bind DCLK1-KD”. Besides, in test [3] (40 μM, without tubulin polymerisation (Fig. 5d lanes 12, 13)), the “aggregation and pelleting of DCLK1-FL1Δ D511N upon centrifugation” value was “does not cause”. In test [4], the “tubulin polymerisation and stabilisation by compound alone” value is “does not promote tubulin polymerisaton and stabilisation”.
